These results are taken from patent US20230101069A1, “AGENTS FOR USE IN THE TREATMENT OF TISSUE DAMAGE 2” (UCL BUSINESS LTD, priority 2020, published 2023).

pIC50: −log10 of the molar value.

The target of one assay is T1, CRP (Homo sapiens, UniProt P02741).
T1 sequence (P02741 19-224): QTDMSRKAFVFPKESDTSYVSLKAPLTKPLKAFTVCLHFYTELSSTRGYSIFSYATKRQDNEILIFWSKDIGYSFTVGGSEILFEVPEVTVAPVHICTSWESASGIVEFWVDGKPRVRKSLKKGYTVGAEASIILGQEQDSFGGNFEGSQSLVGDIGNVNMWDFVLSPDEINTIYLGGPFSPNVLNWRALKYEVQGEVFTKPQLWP
Kind of assay: rat acute myocardial infarction model (coronary artery ligation) with administered human CRP. Format: in vivo. The settings on record: ischaemia reperfusion design and terminal coronary artery ligation, Pepys, unpublished observations. The source says: Human CRP and activated rat complement were deposited in and around the infarct and the exacerbation of tissue damage was absolutely complement dependent. Similar observations were made in the middle cerebral artery occlusion model of stroke in rats (3).
The design of the first small molecule inhibitor of CRP binding for use in vivo, bis(phosphocholine)hexane (BPC6), enabled conclusive confirmation of the pathogenic role of human CRP in exacerbating tissue damage after ischaemic infarction (2).
BPC6 and BPC8 are avidly bound by CRP, cross linking pairs of the native pentameric protein molecules. […] However, the bis(phosphocholine)alkane series of compounds were difficult to synthesise and purify at scale.
As to `C[N+](C)(C)CCOP(=O)(O)OCCCCCCCCOP(=O)(O)OCC[N+](C)(C)C` [Example 12, bis(phosphocholine)octane], the “protective effect against human CRP pathogenicity” value is listed as “same protective effect”.

The target in another assay is T1, CRP. In words: inhibition of CRP binding in vitro. The note with it: Pepys, unpublished observations.
In the case of `C[N+](C)(C)CCOP(=O)(O)OCCCCCCCCOP(=O)(O)OCC[N+](C)(C)C` [Example 12, bis(phosphocholine)octane], the “potency as inhibitor of CRP binding in vitro, compared with BPC6” value was “more potent inhibitor of CRP binding in vitro”.

The next assay has as its target T1, CRP.
Assay: not given
The note with it: rats undergoing coronary artery ligation and receiving human CRP; cited from earlier work.
In the case of `C[N+](C)(C)CCOP(=O)([O-])OCCCCCCOP(=O)([O-])OCC[N+](C)(C)C` [BPC6, bis(phosphocholine)hexane], the “increased damage caused by human CRP after coronary artery ligation” value is on record as “completely abrogated the increased damage”.

A further assay addresses T1, CRP. In words: MIRA immunoturbidimetric assay (inhibition of CRP recognition, COBAS MIRA autoanalyser). The format is binding. The note with it: 0.73 μM native pentameric CRP, TC buffer, 1 h at room temperature; read-out: IC50. Also on record: The final concentrations were 0.73 μM native pentameric CRP; from tissue. The source says:
The CRP immunoturbidimetric assay on the Roche COBAS MIRA Plus autoanalyser, utilises two different sized latex particles that are covalently coupled with two different monoclonal antibodies with specificity for different CRP epitopes (5). The assay was validated by Roche for measurement of native pentameric CRP, for which it has high sensitivity and specificity and a high upper detection limit; it was calibrated against a standard produced in our laboratory. Serendipitously, one of the assay's antibodies binds to an epitope present on the ligand binding B face of CRP. Thus, when the binding pocket is occupied by ligand or is occluded, for example by B face to B face complexing of pentamers, the assay fails to detect CRP although it is demonstrable by other types of assays that employ antibodies which bind to different epitopes. Bivalent compounds such as BPC8 and APL-2191 were designed to crosslink pairs of CRP pentamers. Therefore, inhibition of CRP recognition in the MIRA assay is a convenient tool to monitor the efficacy and potency of complex formation between such ligands and CRP (6).
CRP concentrations were measured in the presence and absence of ligands by the COBAS MIRA autoanalyser. Concentrated Tris-calcium buffer (×10 TC) was prepared in MilliQ water from trishydroxymethyamine (100 mM), calcium chloride (20 mM) and sodium chloride (1.4 M). The pH was adjusted to 8.0 using HCl and sodium azide was added (0.1% w/v); the buffer was stored at 4° C. A tenfold diluted working buffer (TC) was prepared by dilution 100 ml of the ×10 concentrated buffer with 900 ml of MilliQ water. Human CRP was isolated, purified and characterised as previously reported (6-9) and stored frozen at −80° C. When required, stock CRP was thawed at 37° C. and working dilutions prepared that were kept at 4° C. for the duration of an experiment. CRP concentration was determined spectrophotometrically (Beckman Coulter DU 650) in quartz cuvettes with a 1 cm light path, by measuring […] after correction for absorbance at 320 nm (light scattering) and using the measured absorption coefficient A (1%, 1 cm)=17.5 for human CRP (10). Human CRP at ˜90 μg/ml (0.78 μM of pentamer) in TC buffer was prepared from a stock solution; a 75 μl aliquot was used in the assay. Compounds were supplied by Wuxi AppTec (Wuhan, China) as solids. They were dissolved in TC buffer at suitable concentrations, depending on solubility, of up to 10 mM (labelled S1). They were then serially diluted 1:2 with TC buffer (100 μl ligand+200 μl TC) to provide up to 9 dilutions, S2-S10. A TC buffer control (50) was included in each assay. A 15 μl volume of each ligand solution was incubated with 75 μl of CRP for 1 h at room temperature. The final concentrations were 0.73 μM native pentameric CRP, ligands S1-S10=625-0.03 μM, corresponding to ligand:CRPr ratios of 850-0.04. Where compounds were of reduced solubility in TC buffer, lower stock concentrations were used (from 0.6 mM), corresponding to final top assay concentrations of 100 μM.
Data are expressed as measured CRP (mg/L) against final total ligand concentration (μM) and were plotted using Sigmaplot (V14) using the 4 parameter logistic curve y=min+(max−min)/(1+(x/EC50)[…]) to calculate EC50. Where appropriate, samples were also measured in whole normal human serum following the addition of a known amount of human CRP. All compounds were assayed in comparison with a highly purified preparation of bis(phosphocholine)octane (BPC8), that was prepared by Carbogen AMCIS AG and diluted into sterile water at 10 mM concentration. It was stored at −80° C. The solution was diluted into TC buffer as required.
One may read the pIC50 as the IC50 on a negative log10 scale, so that one unit is a factor of ten. As to `O=C(N[C@@H](C(=O)O)C1CN2CCC1CC2)c1ccc(C(=O)N[C@@H](C(=O)O)C2CN3CCC2CC3)cc1` (stereo partly drawn) [Example 1, (R,2R,2′R)-2,2′-(terephthaloylbis(azanediyl))bis(2-((R)-quinuclidin-3-yl)acetic acid)], the pIC50 is 6.22.

In the case of `O=C(N[C@@H](C(=O)O)[C@H]1CN2CCC1CC2)c1ccc(C(=O)N[C@@H](C(=O)O)[C@H]2CN3CCC2CC3)nc1` [Example 2, (R,2R,2′R)-2,2′-((pyridine-2,5-dicarbonyl)bis(azanediyl))bis(2-((R)-quinuclidinyl)acetic acid)], the negative logarithm of the IC50 (pIC50) is 6.19.

On to `O=C(N[C@@H](C(=O)O)[C@H]1CN2CCC1CC2)c1cnc(C(=O)N[C@@H](C(=O)O)[C@H]2CN3CCC2CC3)cn1` [Example 3, (R,2R,2′R)-2,2′-((pyrazine-2,5-dicarbonyl)bis(azanediyl))bis(2-((R)-quinuclidinyl)acetic acid)], for which the pIC50 was 5.91.

Regarding `O=C(N[C@@H](C(=O)O)[C@H]1CN2CCC1CC2)c1ccc(C(=O)N[C@@H](C(=O)O)[C@H]2CN3CCC2CC3)nn1` [Example 4, (R,2R,2′R)-2,2′-((pyridazine-3,6-dicarbonyl)bis(azanediyl))bis(2-((R)-quinuclidin-3-yl)acetic acid)], the pIC50 was 6.24.

Turning to `O=C(N[C@@H](C(=O)O)[C@H]1CN2CCC1CC2)c1ccc(-c2ccc(C(=O)N[C@@H](C(=O)O)[C@H]3CN4CCC3CC4)cc2)cc1` [Example 5, (R)-2-(4′-(((R)-carboxy((R)-quinuclidin-3-yl)methyl)carbamoyl)-[1,1′-biphenyl]-4-ylcarboxamido)-2-((R)-quinuclidin-3-yl)acetic acid], the pIC50 is 6.14.

As for `Cc1cc(C(=O)N[C@@H](C(=O)O)[C@H]2CN3CCC2CC3)ccc1-c1ccc(C(=O)N[C@@H](C(=O)O)[C@H]2CN3CCC2CC3)cc1` [Example 6, (R)-2-(4′-(((R)-carboxy((R)-quinuclidin-3-yl)methyl)carbamoyl)-2′-methyl-[1,1′-biphenyl]-4-ylcarboxamido)-2-((R)-quinuclidin-3-yl)acetic acid], the pIC50 was 6.25.

As to `O=C(N[C@@H](C(=O)O)[C@H]1CN2CCC1CC2)c1ccc2cc(C(=O)N[C@@H](C(=O)O)[C@H]3CN4CCC3CC4)ccc2c1` [Example 7, (R,2R,2′R)-2,2′-((naphthalene-2,6-dicarbonyl)bis(azanediyl))bis(2-((R)-quinuclidin-3-yl)acetic acid)], the pIC50 was 6.29.

Turning to `Cc1cc(C(=O)N[C@@H](C(=O)O)[C@H]2CN3CCC2CC3)c(C)cc1C(=O)N[C@@H](C(=O)O)[C@H]1CN2CCC1CC2` [Example 8], the pIC50 was 6.23.

Turning to `Cc1cc(C(=O)N[C@@H](C(=O)O)[C@H]2CN3CCC2CC3)ccc1C(=O)N[C@@H](C(=O)O)[C@H]1CN2CCC1CC2` [Example 9], the pIC50 is 6.26.

For `O=C(N[C@@H](C(=O)O)[C@H]1CN2CCC1CC2)c1cc(OCc2ccccc2)c(C(=O)N[C@@H](C(=O)O)[C@H]2CN3CCC2CC3)cc1OCc1ccccc1` [Example 10], the pIC50 is 6.17.

As to `O=C(N[C@@H](C(=O)O)[C@H]1CN2CCC1CC2)c1cccc(C(=O)N[C@@H](C(=O)O)[C@H]2CN3CCC2CC3)c1` [Example 11, 2-[[3-[[carboxy-1(3R)-quinuclidin-3-yl]methyl]carbamoyl]benzoylamino]-2-[(3R)-quinuclidin-3-yl]acetic acid], the pIC50 is 5.69.

With `C[N+](C)(C)CCOP(=O)(O)OCCCCCCCCOP(=O)(O)OCC[N+](C)(C)C` [Example 12, bis(phosphocholine)octane], the pIC50 was 5.92.

Staying with this assay, now noted: alternative stereoisomers of the formula (I) structure; read-out: IC50 of alternative stereoisomers (QA,QA: Quinuclidine, Amino Acid).
For the molecule `O=C(NC(C(=O)O)C1CN2CCC1CC2)c1ccc(C(=O)NC(C(=O)O)C2CN3CCC2CC3)cc1` (single isomer, unassigned) [RS,RR], the negative-log IC50 (pIC50) was less than 3.00.

In the case of `O=C(NC(C(=O)O)C1CN2CCC1CC2)c1ccc(C(=O)NC(C(=O)O)C2CN3CCC2CC3)cc1` (single isomer, unassigned) [RS,RS], the pIC50 is less than 3.00.

Regarding `O=C(NC(C(=O)O)C1CN2CCC1CC2)c1ccc(C(=O)NC(C(=O)O)C2CN3CCC2CC3)cc1` (single isomer, unassigned) [SR,SR], the pIC50 is less than 3.00.

As for `O=C(NC(C(=O)O)C1CN2CCC1CC2)c1ccc(C(=O)NC(C(=O)O)C2CN3CCC2CC3)cc1` (single isomer, unassigned) [SS,SS], the pIC50 was 4.46.
